The values that follow come from patent US20210361577A1, “LIPOPHILIC TRANSPORT PARTICLES FOR COSMETIC OR PHARMACEUTICAL ACTIVE INGREDIENTS” (IOI OLEO GMBH, priority 2018, published 2021).

Read-outs that look alike come from different tables or passages of the source.

A short description of series [1]: contact angle with purified water (hydrophobicity) and its storage stability. The series is classed as physicochemical. Particulars: after 16 weeks at room temperature (20° C.) and at 40° C. Here is the method: An advantageous property of the PGFEs for lipophilic carrier particles in accordance with claim 1 which should be considered is the hydrophobicity, which can be determined by determining the contact angle. The determination of the hydrophobicity is carried out by determining the contact angle between the PGFE in the solid physical state and a droplet of purified water. According to Young's equation, cos θ=(γSV−γSL)/γLV, wherein γSL is the interfacial tension between the PGFE and water, γLV is the interfacial tension of the water droplet and γSV is the surface tension between the PGFE and the surrounding air. θ is the contact angle. Thus, the larger the contact angle θ, the higher is the surface tension between the PGFE and the water and the higher is the hydrophobicity of the PGFE under investigation. The contact angles for the proposed polyglycerol fatty acid esters also correlate with the HLB value which is often used in pharmaceutical technology, which is on a scale of 0 to 20 and provides information regarding the ratio of lipophilic to hydrophilic molecular fractions, wherein the hydrophilic fraction increases with increasing HLB value. […]

The conditions of series [2]: cited from earlier work.
The nature of series [3]: active ingredient loading of carrier particles made by spray drying. The series is classed as physicochemical. Particulars: spray drying process. The text has this:
The carrier particles which are provided fulfil their purpose when they are loaded with an active ingredient, in particular a pharmaceutical active ingredient. This may, for example, be carried out by means of a spray drying process in accordance with claim 22, in which the active ingredient and the PGFE or PGFEs are initially dissolved and/or suspended in a suitable organic solvent and then are separated from the solvent once more by spray drying. Examples of suitable solvents are the ether tetrahydrofuran, the alcohol ethanol, the ketone acetone, the ester ethyl acetate or the alkane heptane. It has been shown that by means of spray drying, loading with a pharmaceutical active ingredient of up to 30% by weight is possible.
Lipophilic carrier particles in accordance with claim 1 can advantageously be loaded with pharmaceutical active ingredients from the group formed by non-steroidal antirheumatic agents.

Consider `CCCCCCCCCCCCCCCCCC(=O)OCC(COC(=O)CCCCCCCCCCCCCCCCC)OC(=O)CCCCCCCCCCCCCCCCC` [glycerol tristearate], for which, in series [1], the “contact angle deviation from starting value on storage” value is recorded as 40 °. The “increase in the crystal thickness” value in series [2] (a- to b-modification transformation) is listed as “approximately 67%”. The “average lamellar structures per subcellular unit” value in series [2] (a-modification) is 6; in series [2] (after complete transformation into the b-modification), 10.5.

Regarding `CC(C)Cc1ccc(C(C)C(=O)O)cc1` (centres unmarked) [ibuprofen], in series [3], the “loading of the carrier particles with active ingredient” value is listed as “up to 30 % by weight”.
